Results: patent US20150037399A1, “NOVEL USE OF PIPOXOLAN AND ITS PHARMACEUTICAL COMPOSITION” (China Medical University, priority 2013, published 2015)

Assays:
[1] = test system: neurological deficits in ischemic rats; test: Evaluation of neurological deficits after ischemia-reperfusion; format: in vivo, Sprague-Dawley (SD) rats; conditions: 24 hr after reperfusion; for neurological deficits (score 0-5): mean±SE
Protocol: Focal ischemia was induced by occlusion of both common carotid arteries (CCA) and the right middle cerebral artery (MCA). Eighteen rats were randomly assigned to 3 treatment groups, six rats for each group. Group 1 rats were treated with saline and groups 2 and 3 treated with pipoxolan (10 mg/kg and 30 mg/kg, respectively). Rats were fasted overnight with free access to water. Pipoxolan (10, 30 mg/kg) was orally administered 1 hr prior to transient focal cerebral ischemia-reperfusion. Animals then were anesthetized with zoletil® (25 mg/kg i.p.), and the skull was exposed, and a small burr hole was produced over the MCA. Beneath the right MCA, proximal to the major bifurcation of the right MCA, distal to the lenticulostriate arteries, and rostral to the rhinal fissure, a 10-0 nylon monofilament was placed. The artery then was lifted and the nylon filament rotated clockwise. Both CCA were then occluded using a microvascular clip. After 90 minutes of occlusion, reperfusion was established by removing the microvascular clips from the CCA, rotating the nylon monofilament counterclockwise and removing it from beneath the MCA. After 24 hr, all rats were alive and neurobehavioral deficits evaluation and infarct assessment were performed Twenty four hours following reperfusion, neurological function of rats was assessed. The degree of neurological deficits were divided 0-5 (higher score is for more severe neurological deficits) as follows: 0=no neurological deficits, 1=failure to extend left forepaw fully, 2=circling to the left, 3=falling to left, 4=no spontaneous walking with a depressed level of consciousness, and 5=death. Neurological evaluation was done by an observer who was blind to the treatment conditions of the animals. After completion of the neurobehavioral evaluation, rats were deeply anesthetized by an intraperitoneal injection of zoletil® (50 mg/kg) followed by intracardiac perfusion with 200 ml of freezing PBS and animals were then decapitated. The brain was removed and sliced in 2-mm sections using a rodent brain matrix slicer. The sections were stained with 2% 2,3,5-triphenyltetrazoliumchloride (TTC) for 10 min at 37° C. and fixed in 10% formalin. The image of each section was digitized and the infarct area was determined morphometrically using Image-Pro Plus 6.0 (Media Cybernetics, Md., USA).

[2] = test system: PDGF-BB-induced migration of A7r5 cells (VSMCs); test: In vitro wound healing assay; format: cell-based; conditions: PDGF-BB 30 ng/ml, 5, 10 and 15 μM, 24, 48 and 72 hr, dose-dependent
Protocol: The VSMCs cell line A7r5 was purchased from Bioresource Collection and Research Center (Hsinchu, Taiwan). A7r5 cells were plated onto 6-well plates in DMEM, supplemented with 10% FBS, 100 units/ml penicillin, 100 μg/ml streptomycin and 2 mM L-glutamine and grown at 37° C. under a humidified 5% CO2 and 95% air at one atmosphere. The effects of pipoxolan on VSMCs migration were evaluated by a wound-healing assay. Platelet-derived growth factor (PDGF) form VMSCs can cause cell migration, which results in intimal hyperplasia. A7r5 cells were plated in 6-well plates (2×10^5 cells per well) and damage was performed with a single scratch wound using a sterile micropipette tip. Cells were then incubated with or without PDGF-BB (30 ng/ml) and pipoxolan (5, 10, 15 μM) in serum-reduced DMEM medium (containing 0.5% fetal bovine serum). The extent of wound closure was determined using a phase contrast microscope at 24, 48, and 72 hr following wounding. Cell migration was expressed by the migration distance of drug-treated cells (mm) divided by the migration distance of untreated cells (mm).

[3] = test system: PDGF-BB-induced migration of A7r5 cells (VSMCs); test: Transwell migration assay; format: cell-based; conditions: PDGF-BB 30 ng/ml 48 hr, vs PDGF-BB control, read-out: percent inhibition of cell migration across the membrane
Protocol: The VSMCs cell line A7r5 was purchased from Bioresource Collection and Research Center (Hsinchu, Taiwan). A7r5 cells were plated onto 6-well plates in DMEM, supplemented with 10% FBS, 100 units/ml penicillin, 100 μg/ml streptomycin and 2 mM L-glutamine and grown at 37° C. under a humidified 5% CO2 and 95% air at one atmosphere. Effects of pipoxolan on VSMCs migration were further investigated by a transwell migration chamber with a collagen-coated polycarbonate filter. A7r5 cells (2×10^5 cells) were seeded on a transwell apparatus (a 6.5-mm polyethylene terephthalate membrane with 8-μm pores) and treated with pipoxolan (0, 5, 10 and 15 μM) in the presence of PDGF-BB (30 ng/ml) for 48 hr. The cells were then trypsinized, resuspended in 0.5% FBS medium. FBS/DMEM (10%) was added to the bottom chamber of each well as the chemoattractant. Cells were allowed to migrate for 8 hr through the membrane to the underside of the apparatus. Cells were then fixed with methanol for 10 min and stained with Giemsa solution for 30 min. The cells migrating to the lower outside of the insert membrane were counted manually using a microscope and the NIS-Elements software.

[4] = test system: p-ERK; test: Western blot of p-ERK in PDGF-BB-stimulated VSMCs; format: cell-based
Protocol: The role of matrix metalloproteinase-2/9 (MMP-2/9) and the Ras/MEK/ERK signaling pathways were used to evaluate the effect of pipoxolan on VSMCs migration. The protein expression levels were determined by Western blot analysis. Each vertical bars represented mean±S.E. **p<0.01 and ***p<0.001 compared with control group (n=6 in each group).

What does the source list for Cl.O=C1OC(CCN2CCCCC2)OC1(c1ccccc1)c1ccccc1 (centres unmarked) [pipoxolan, 5,5-diphenyl-2-(2-piperidin-1-ylethyl)-1,3-dioxolan-4-one hydrochloride]?
reduction of neurological deficits ([1]; 10 mg/kg p.o.): 31.25%; neurological deficits (score 0-5) ([1]; 10 mg/kg p.o.): 2.20±0.20; reduction of neurological deficits ([1]; 30 mg/kg p.o.): 46.88%; neurological deficits (score 0-5) ([1]; 30 mg/kg p.o.): 1.7±0.21; effect on PDGF-BB-induced cell migration (wound closure) [2]: markedly inhibited; inhibition at 5 µM ([3]; 5 μM): 46.2%; inhibition at 10 µM ([3]; 10 μM): 62.2%; inhibition at 15 µM ([3]; 15 μM): 76.5%; reduction of p-ERK protein level ([4]; 5 μM): 50.33%; reduction of p-ERK protein level ([4]; 10 μM): 51.67%; reduction of p-ERK protein level ([4]; 15 μM): 75%
